{"source": "patent US10238689B2", "about": "“Methods for combating bacterial infections by killing persister cells with mitomycin C and/or cisplatin” (THE PENN STATE RESEARCH FOUNDATION, priority 2015, dated 2019)", "key": {"[1]": {"tested_on": "E. coli K-12 ΔuvrA, ΔuvrB, and ΔuvrC mutants", "test": "Planktonic killing of uvr deletion mutants", "assay_type": "cell-based, Escherichia coli", "conditions": "mid-stationary phase, buffered LB", "description": "(§1) In order to obtain exponential and mid-stationary phase cultures in LB, buffered LB or TSB, overnight cultures (16 h) were diluted 1:1000 in fresh medium and grown to the desired turbidity (i.e., a turbidity below 2 at 600 nm for exponential phase and a turbidity of 3 to 4 at 600 nm for mid-stationary phase). Late-stationary phase cultures in LB or buffered LB were obtained by growing overnight cultures (16 h). In order to obtain exponential and late-stationary phase cultures in M9-glucose, overnight cultures (16 h) were washed diluted 1:1000 in M9-glucose and grown for the desired period of time (i.e., a turbidity of 0.4 at 600 nm for exponential phase and 24 h of growth for late-stationary phase). Anaerobically grown cultures were maintained with ˜20% CO2, ˜79% N2, and ˜1% H2. In order to obtain rifampicin-induced persister cultures in buffered LB, overnight cultures (16 h) were diluted 1:1000 in fresh medium and grown to a turbidity of 0.8 at 600 nm. Cultures were exposed to rifampicin (100 μg/mL) for 30 min, centrifuged, and resuspended in fresh medium to remove the rifampicin."}, "[2]": {"tested_on": "EHEC biofilm cultures", "conditions": "M9-glucose, 24 h treatment, MMC 10 μg/mL, ciprofloxacin 5 μg/mL"}, "[3]": {"tested_on": "E. coli O157:H7 (EHEC)", "test": "Planktonic antibiotic killing assay", "assay_type": "cell-based, Escherichia coli", "conditions": "MMC 10 μg/mL, 3 h; for cell viability after treatment: rich medium (buffered LB)", "description": "as §1"}, "[4]": {"tested_on": "E. coli K-12", "test": "Planktonic antibiotic killing assay", "assay_type": "cell-based, Escherichia coli", "conditions": "for fold more effective compared to ciprofloxacin: MMC 10 μg/mL vs ciprofloxacin 5 μg/mL", "description": "as §1"}, "[5]": {"tested_on": "gDNA (rrsG and murB) of E. coli K-12 BW25113/pCA24N", "test": "qPCR of gDNA crosslinking in cells (in vivo)", "assay_type": "cell-based, Escherichia coli", "conditions": "MMC 100 μg/mL 1 h", "description": "Overnight cultures (16 h) of E. coli K-12 BW25113/pCA24N grown in LB were diluted 1:1000 in buffered LB and grown to the desired turbidity. For exponential phase cells (i.e., non-persisters), cultures were grown to a turbidity of 2.0 at 600 nm. For rifampicin-induced persisters, cultures were grown to a turbidity of 0.8 at 600 nm, exposed to rifampicin (100 μg/mL) for 30 min, centrifuged, and resuspended in fresh medium to remove the rifampicin. Non-persister and rifampicin-induced persister cultures were treated with MMC (100 μg/mL) for 1 h. gDNA was extracted, using an UltraClean Microbial DNA Isolation Kit (MO BIO Laboratories, Carlsbad, Calif., USA), from samples taken before and after MMC treatment and 100 ng of DNA was used for qPCR of rrsG and murB using the GoTaq qPCR Master Mix (Promega, Madison, Wis., USA) and the StepOne Real-Time PCR System (Applied Biosystems, Foster City, Calif., USA) (primers are shown in Table 2). As a positive control, 3 μg of gDNA from BW25113 non-persisters was crosslinked in vitro with 500 μg/mL (1.5 mM) MMC in 0.2 mM EDTA, 50 mM NaCl, and 5 mM Tris (pH=7.6) with Na2S2O4 added six times at 10 min intervals to reach a final concentration of 2.25 mM (1.5× molarity of MMC). The in vitro crosslinking reaction was performed anaerobically on ice and the reaction was stopped by exposure to air."}, "[6]": {"tested_on": "E. coli K-12 BW25113 biofilm", "test": "Biofilm dispersal assay (crystal violet)", "assay_type": "cell-based, Escherichia coli", "conditions": "24 h static growth then 24 h with MMC, 30° C., M9-glucose", "description": "Cultures were incubated for an additional 24 h with or without MMC. Biofilm levels were assayed using crystal violet staining as described previously (Lee, et al., Appl. Environ. Microbiol. 75, 1703 (2009)). Cell growth (turbidity at 620 nm) was used to normalize the total biofilm formation (absorbance at 540 nm). Data points were averaged from 15 replicate wells using at least two independent cultures."}, "[7]": {"tested_on": "EHEC infection", "assay_type": "in vivo, Caenorhabditis elegans", "conditions": "MMC 10 μg/mL, ciprofloxacin 5 μg/mL, ampicillin 100 μg/mL, 6 h exposure; four replicates"}, "[8]": {"tested_on": "E. coli K-12", "test": "Minimum inhibitory concentration (MIC) assay", "assay_type": "cell-based, Escherichia coli", "conditions": "16 h, lack of turbidity", "description": "Minimum inhibitory concentration (MIC) assay. To determine the MICs of cisplatin for E. coli K-12, enterohemorrhagic E. coli (EHEC), S. aureus, and P. aeruginosa (PAO1 and PA14), freshly inoculated cultures (at least two independent cultures) in buffered LB (TSB for S. aureus) were incubated for 16 h with varying concentrations of cisplatin, and growth inhibition was assayed by the lack of turbidity."}, "[9]": {"tested_on": "E. coli K-12 persister cells", "test": "Rifampicin-induced persister cell killing assay", "assay_type": "cell-based, Escherichia coli", "description": "Rifampicin-pretreatment was used to convert nearly all the E. coli exponentially-growing cells to persister cells. In brief, overnight cultures (16 h) of E. coli BW25113 were diluted 1:1000 in buffered LB and grown to a turbidity of 0.8 at 600 nm (250 mL flask, 250 rpm). Cultures were treated with rifampicin (100 μg/mL) for 30 min (250 mL flask, 250 rpm), centrifuged, and resuspended in fresh medium to remove the rifampicin. A 1 mL culture was used for a drop assay to check cell viability at 0 h. […] After 3 h, 1 mL of culture was centrifuged at 10,000 rpm for 3 min, the supernatant was discarded, the cells were resuspended in 1 mL of normal saline, and the cell suspension was serially diluted for a drop assay to check cell viability. In addition, 1 mL samples were centrifuged, and the cell pellet resuspended in 150 μL of normal saline and spread on LB agar.\nTo test whether lower concentrations than 500 μg/mL of cisplatin generate resistant mutants, 5 mL cultures of rifampicin-induced persister cells were treated with 200 μg/mL of cisplatin and cells were enumerated by the drop assay using LB agar, LB agar with 200 μg/mL of cisplatin (LBCP200), and LB agar with 500 μg/mL of cisplatin (LBCP500)."}, "[10]": {"conditions": "treatment with 2×MIC (200 μg/mL) of cisplatin"}}, "note": "“Also recorded” adds a separate entry of the source.", "data": [{"compound": "CO[C@@]12[C@H](COC(N)=O)C3=C(C(=O)C(C)=C(N)C3=O)N1C[C@@H]1N[C@@H]12", "note": "[MMC, mitomycin C]", "values": [{"measurement": "time of treatment to eradication (beyond the limit of detection)", "setting": "[1]", "value": "less than 30 min"}, {"measurement": "cells surviving", "setting": "[2]", "value": "eradicated"}, {"measurement": "cell viability after treatment", "setting": "[3]; exponential phase", "value": "eradicating"}, {"measurement": "cells survived", "setting": "[3]; late-stationary phase, M9-glucose, ciprofloxacin 5 μg/mL", "value": "eradicated"}, {"measurement": "cell viability after treatment", "setting": "[3]; mid-stationary phase", "value": "eradicating"}, {"measurement": "survival", "setting": "[4]; anaerobic, late-stationary phase cells in rich medium (LB)", "value": "eradication beyond the limit of detection; also recorded: eradicated"}, {"measurement": "susceptibility of exponential-phase cultures", "setting": "[4]; exponential phase, M9-glucose", "value": "similarly susceptible"}, {"measurement": "fold more effective compared to ciprofloxacin", "setting": "[4]; exponentially-growing cells, buffered LB, 3 h", "value": "2,300 fold"}, {"measurement": "time course of killing (death curve)", "setting": "[4]; late-stationary phase culture, buffered LB", "value": "does not show the bi-phasic death curve"}, {"measurement": "persistence (surviving population)", "setting": "[4]; late-stationary phase, M9-glucose, MMC 10, ciprofloxacin 5, gentamicin 10 μg/mL, 3 h", "value": "eradication beyond the limit of detection; also recorded: eradicated cells"}, {"measurement": "fold more effective compared to ciprofloxacin", "setting": "[4]; mid-stationary-phase cells, buffered LB, 3 h", "value": "150,000 fold"}, {"measurement": "effectiveness against rifampicin-induced persister cells", "setting": "[4]; rifampicin pretreatment 100 μg/mL 30 min, buffered LB, MMC 10 μg/mL, ciprofloxacin 5 μg/mL, 3 h", "value": "highly effective"}, {"measurement": "Fold Change in amplifiable DNA", "setting": "[5]; Non-persisters, murB", "value": "−5.13±0.14", "unit": "fold"}, {"measurement": "Fold Change in amplifiable DNA", "setting": "[5]; Non-persisters, rrsG", "value": "−5.95±0.20", "unit": "fold"}, {"measurement": "Fold Change in amplifiable DNA", "setting": "[5]; Persisters, murB", "value": "−5.99±0.50", "unit": "fold"}, {"measurement": "Fold Change in amplifiable DNA", "setting": "[5]; Persisters, rrsG", "value": "−5.01±0.51", "unit": "fold"}, {"measurement": "biofilm dispersal", "setting": "[6]", "value": "does not cause biofilm dispersal; also recorded: did not cause biofilm dispersal"}, {"measurement": "survival of the EHEC-infected worms", "setting": "[7]", "value": "higher than with either ciprofloxacin or ampicillin"}]}, {"compound": "N.N.[Cl][Pt][Cl]", "note": "[cisplatin, cis-diamminodichloroplatinum(II)]", "values": [{"measurement": "MIC", "setting": "[8]", "value": 100, "unit": "µg/mL"}, {"measurement": "colonies from 1 mL samples", "setting": "[9]; after the 3 h cisplatin treatment (500 μg/mL)", "value": "37±5", "unit": "colonies"}, {"measurement": "number of persister cells after treatment (drop assay)", "setting": "[9]; cisplatin 500 μg/mL, 3 h, limit of detection", "value": "< 100", "unit": "cells/mL"}, {"measurement": "colonies on LBCP500 agar plates (spontaneous resistant mutants)", "setting": "[9]; [10]", "value": "no colonies were found"}, {"measurement": "survivors on LBCP200 agar plates", "setting": "[9]; [10]", "value": 0.08, "unit": "%"}]}]}
